Converted amounts (≈) assume the structure as drawn. The source made the active and inactive calls. The rule behind the calls is not given here.
Experiments:
[1] = tested on: Staphylococcus epidermidis; assay: Antimicrobial activity against Staphylococcus epidermidis ATCC 35984 incubated for 18 hrs by twofold microdilution method; assay type: functional
[2] = Selectivity index, ratio of IC50 for cytotoxicity against human HaCaT cells to IC50 for cytotoxicity against human MDA-MB-231 cells; assay type: toxicity, cell-based; conditions: HaCaT cells versus MDA-MB-231 cells, read-out: Ratio IC50
MDA-MB-231 [3] = assay: Induction of apoptosis in human MDA-MB-231 cells assessed as early apoptotic cells at IC50 incubated for 72 hrs by Annexin V-FITC staining based flow cytometry analysis (reference value: 4.23 %); assay type: functional
A549 [4] = assay: Induction of mitochondrial respiration in human A549 cells assessed as oxygen consumption rate at 0.1 to 10 uM by Oxygraph-2K system; assay type: functional, cell-based; conditions: dose 0.1-10 µM
[5] = Selectivity index, ratio of IC50 for cytotoxicity against human HaCaT cells to IC50 for cytotoxicity against human PC-3 cells; assay type: toxicity, cell-based; conditions: HaCaT cells versus PC-3 cells, read-out: Ratio IC50
Escherichia coli = assay: Antimicrobial activity against Escherichia coli ATCC 25922 incubated for 18 hrs by twofold microdilution method; assay type: functional
Staphylococcus aureus [6] = assay: Antimicrobial activity against Staphylococcus aureus ATCC 25923 incubated for 18 hrs by twofold microdilution method; assay type: functional
Lipid bilayer [7] = assay: Induction of ionic transport in azolectin bilayer membrane assessed as membrane rupture in presence of HEPES buffer by electrophysiology technique
A549 [8] = assay: Effect on mitochondrial function in human A549 cells assessed as change in mean fluorescence intensity at IC50 incubated for 48 hrs by MitoTracker Red CMXRos staining based flow cytometry analysis; assay type: functional, cell-based
MDA-MB-231 [9] = assay: Induction of cell cycle arrest in human MDA-MB-231 cells assessed as inhibition of cell division at IC50 incubated for 24 hrs by propidium iodide staining based flow cytometry analysis; assay type: functional
[10] = Selectivity index, ratio of IC50 for cytotoxicity against human HaCaT cells to IC50 for cytotoxicity against human SW620 cells; assay type: toxicity, cell-based; conditions: HaCaT cells versus SW620 cells, read-out: Ratio IC50
MDA-MB-231 [11] = assay: Cytotoxicity against human MDA-MB-231 cells incubated for 72 hrs by MTT assay; assay type: functional, cell-based; conditions: MDA-MB-231, 72 h
[12] = Selectivity index, ratio of IC50 for cytotoxicity against chinese hamster V79 cells to IC50 for cytotoxicity against human MDA-MB-231 cells; assay type: toxicity, cell-based; conditions: V79 cells versus MDA-MB-231 cells, read-out: Ratio IC50
A549 [13] = assay: Induction of apoptosis in human A549 cells assessed as necrotic cells at IC50 incubated for 72 hrs by Annexin V-FITC staining based flow cytometry analysis (reference value: 0.97 %); assay type: functional
A549 [14] = assay: Induction of apoptosis in human A549 cells assessed as viable cells at IC50 incubated for 72 hrs by Annexin V-FITC staining based flow cytometry analysis (reference value: 95.49 %); assay type: functional
Lipid bilayer [15] = assay: Induction of ionic transport in azolectin bilayer membrane assessed as specific channel-like structure formation in presence of HEPES buffer by electrophysiology technique
Pseudomonas aeruginosa = assay: Antimicrobial activity against Pseudomonas aeruginosa ATCC 15442 incubated for 18 hrs by twofold microdilution method; assay type: functional
Mitochondrial membrane [16] = assay: Induction of mitochondrial membrane potential loss in human MDA-MB-231 cells assessed as green fluorescence at IC50 incubated for 48 hrs MitoTracker Green FM staining based flow cytometry analysis (reference value: 8.86 %); assay type: cell membranes
[17] = Selectivity index, ratio of IC50 for cytotoxicity against human HaCaT cells to IC50 for cytotoxicity against human SW480 cells; assay type: toxicity, cell-based; conditions: HaCaT cells versus SW480 cells, read-out: Ratio IC50
[18] = Selectivity index, ratio of IC50 for cytotoxicity against chinese hamster V79 cells to IC50 for cytotoxicity against human A549 cells; assay type: toxicity, cell-based; conditions: V79 cells versus A549 cells, read-out: Ratio IC50
A549 [19] = assay: Cytotoxicity against human A549 cells incubated for 72 hrs by MTT assay; assay type: functional, cell-based; conditions: A549, 72 h
SW480 = assay: Cytotoxicity against human SW480 cells incubated for 72 hrs by MTT assay; assay type: functional, cell-based; conditions: SW480, 72 h
PC-3 = assay: Cytotoxicity against human PC-3 cells incubated for 72 hrs by MTT assay; assay type: functional, cell-based; conditions: PC-3, 72 h
A549 [20] = assay: Induction of ROS generation of human A549 cells at IC50 incubated for 6 hrs by CellROX Green staining based spectrofluorometer analysis; assay type: functional, cell-based
[21] = Selectivity index, ratio of IC50 for cytotoxicity against chinese hamster V79 cells to IC50 for cytotoxicity against human PC-3 cells; assay type: toxicity, cell-based; conditions: V79 cells versus PC-3 cells, read-out: Ratio IC50
Mitochondrial membrane [22] = assay: Induction of mitochondrial membrane potential loss in human MDA-MB-231 cells assessed as red fluorescence at IC50 incubated for 48 hrs MitoTrackerRed CMXRos staining based flow cytometry analysis (reference value: 91.1 %); assay type: cell membranes
[23] = Selectivity index, ratio of IC50 for cytotoxicity against chinese hamster V79 cells to IC50 for cytotoxicity against human SW620 cells; assay type: toxicity, cell-based; conditions: V79 cells versus SW620 cells, read-out: Ratio IC50
MDA-MB-231 [24] = assay: Effect on mitochondrial mass in human MDA-MB-231 cells assessed as increase in mean fluorescence intensity at IC50 incubated for 48 hrs by MitoTracker Green FM staining based flow cytometry analysis; assay type: functional, cell-based
[25] = Selectivity index, ratio of IC50 for cytotoxicity against chinese hamster V79 cells to IC50 for cytotoxicity against human SW480 cells; assay type: toxicity, cell-based; conditions: V79 cells versus SW480 cells, read-out: Ratio IC50
[26] = Cytotoxicity against chinese hamster V79 cells incubated for 72 hrs by MTT assay; assay type: toxicity, cell-based, Cricetulus griseus
Staphylococcus aureus [27] = assay: Antimicrobial activity against Staphylococcus aureus ATCC 6538 incubated for 18 hrs by twofold microdilution method; assay type: functional
Lipid bilayer [28] = assay: Induction of ionic transport in azolectin bilayer membrane assessed as irregular disturbance in membrane permeability in presence of HEPES buffer by electrophysiology technique
Staphylococcus aureus [29] = assay: Antimicrobial activity against Staphylococcus aureus NCTC 4163 incubated for 18 hrs by twofold microdilution method; assay type: functional
MDA-MB-231 [30] = assay: Induction of apoptosis in human MDA-MB-231 cells assessed as viable cells at IC50 incubated for 72 hrs by Annexin V-FITC staining based flow cytometry analysis (reference value: 91.53 %); assay type: functional
MDA-MB-231 [31] = assay: Induction of ROS generation of human MDA-MB-231 cells at IC50 incubated for 6 hrs by CellROX Green staining based spectrofluorometer analysis; assay type: functional, cell-based
A549 [32] = assay: Induction of apoptosis in human A549 cells assessed as early apoptotic cells at IC50 incubated for 72 hrs by Annexin V-FITC staining based flow cytometry analysis (reference value: 1.68 %); assay type: functional
Lipid bilayer [33] = assay: Induction of current generation in azolectin bilayer membrane upto 10 uM in presence of HEPES buffer by electrophysiology technique; assay type: cell membranes
Mitochondrial membrane [34] = assay: Induction of mitochondrial membrane potential loss in human A549 cells assessed as red fluorescence at IC50 incubated for 48 hrs MitoTrackerRed CMXRos staining based flow cytometry analysis (reference value: 91.1 %); assay type: cell membranes
MDA-MB-231 [35] = assay: Induction of apoptosis in human MDA-MB-231 cells assessed as necrotic cells at IC50 incubated for 72 hrs by Annexin V-FITC staining based flow cytometry analysis (reference value: 1.17 %); assay type: functional
Staphylococcus aureus [36] = assay: Antimicrobial activity against Staphylococcus aureus ATCC 29213 incubated for 18 hrs by twofold microdilution method; assay type: functional
MDA-MB-231 [37] = assay: Induction of apoptosis in human MDA-MB-231 cells assessed as late apoptotic cells at IC50 incubated for 72 hrs by Annexin V-FITC staining based flow cytometry analysis (reference value: 3.07 %); assay type: functional
Mitochondrial membrane [38] = assay: Induction of mitochondrial membrane potential loss in human A549 cells assessed as green fluorescence at IC50 incubated for 48 hrs MitoTracker Green FM staining based flow cytometry analysis (reference value: 8.93 %); assay type: cell membranes
[39] = tested on: Staphylococcus epidermidis; assay: Antimicrobial activity against Staphylococcus epidermidis ATCC 12228 incubated for 18 hrs by twofold microdilution method; assay type: functional
[40] = Selectivity index, ratio of IC50 for cytotoxicity against human HaCaT cells to IC50 for cytotoxicity against human A549 cells; assay type: toxicity, cell-based; conditions: HaCaT cells versus A549 cells, read-out: Ratio IC50
[41] = Cytotoxicity against human HaCaT cells incubated for 72 hrs by MTT assay; assay type: toxicity, cell-based
SW-620 = assay: Cytotoxicity against human SW620 cells incubated for 72 hrs by MTT assay; assay type: functional, cell-based; conditions: SW-620, 72 h
A549 [42] = assay: Effect on mitochondrial mass in human A549 cells assessed as increase in mean fluorescence intensity at IC50 incubated for 48 hrs by MitoTracker Green FM staining based flow cytometry analysis; assay type: functional, cell-based
A549 [43] = assay: Induction of apoptosis in human A549 cells assessed as late apoptotic cells at IC50 incubated for 72 hrs by Annexin V-FITC staining based flow cytometry analysis (reference value: 1.86 %); assay type: functional

`CC[C@@H](C(=O)[C@@H](C)[C@@H](O)[C@H](C)[C@@H]1O[C@@H]([C@@H](CC)C(=O)O)CC[C@@H]1C)[C@H]1O[C@]2(C=C[C@@H](O)[C@]3(CC[C@@](C)([C@H]4CC[C@](O)(CC)[C@H](C)O4)O3)O2)[C@H](C)C[C@@H]1C` [SALINOMYCIN] showed an MIC [1] of 1 µg/mL (≈ 1.33 µM), a selectivity ratio [2] of 0.66 and an Activity (MDA-MB-231 [3]) of 8.6%. The Activity (A549 [4]) was “inactive”, the selectivity ratio [5] was 0.3 and the MIC (Escherichia coli) was over 256 µg/mL. For the same molecule, the MIC (Staphylococcus aureus [6]) was 0.5 µg/mL (≈ 0.666 µM), the Activity (Lipid bilayer [7]) was “inactive” and the Activity (A549 [8]) was “inactive”. The Activity (MDA-MB-231 [9]) was “Active”, the selectivity ratio [10] was 0.4 and the IC50 (MDA-MB-231 [11]) was 1220 nM. The selectivity ratio [12] was 1.2, the Activity (A549 [13]) was 3.67% and the Activity (A549 [14]) was 84.56%. For the same molecule, the Activity (Lipid bilayer [15]) was “inactive”, the MIC (Pseudomonas aeruginosa) was over 256 µg/mL and the Activity (Mitochondrial membrane [16]) was 23.4%. For the same molecule, the selectivity ratio [17] was 0.6, the selectivity ratio [18] was 0.8 and the IC50 (A549 [19]) was 1860 nM. The IC50 (SW480) was 1360 nM, the IC50 (PC-3) was 3000 nM and the Activity (A549 [20]) was “Active; Slight Insignificant Increase In Ros Level Was Observed”. For the same molecule, the selectivity ratio [21] was 0.5, the Activity (Mitochondrial membrane [22]) was 76.7% and the selectivity ratio [23] was 0.8. For the same molecule, the Activity (MDA-MB-231 [24]) was “Active; Slight Increase In Mfi Is Observed”, the selectivity ratio [25] was 1.1 and the IC50 at 72 h [26] was 1440 nM. The MIC (Staphylococcus aureus [27]) was 0.5 µg/mL (≈ 0.666 µM), the Activity (Lipid bilayer [28]) was “inactive” and the MIC (Staphylococcus aureus [29]) was 0.5 µg/mL (≈ 0.666 µM). For the same molecule, the Activity (MDA-MB-231 [30]) was 76.94%, the Activity (MDA-MB-231 [31]) was “Active; Slight Insignificant Increase In Ros Level Was Observed” and the Activity (A549 [32]) was 9.72%. The Activity (Lipid bilayer [33]) was “inactive”, the Activity (Mitochondrial membrane [34]) was 91.2% and the Activity (MDA-MB-231 [35]) was 2.97%. For the same molecule, the MIC (Staphylococcus aureus [36]) was 0.5 µg/mL (≈ 0.666 µM), the Activity (MDA-MB-231 [37]) was 11.49% and the Activity (Mitochondrial membrane [38]) was 18.8%. For the same molecule, the MIC [39] was 0.5 µg/mL (≈ 0.666 µM), the selectivity ratio [40] was 0.4 and the IC50 at 72 h [41] was 800 nM. For the same molecule, the IC50 (SW-620) was 1810 nM, the Activity (A549 [42]) was “Active; Slight Increase In Mfi Is Observed” and the Activity (A549 [43]) was 2.05%.

From ChEMBL document CHEMBL6120978, “Anticancer activity of salinomycin quaternary phosphonium salts” (Eur J Med Chem, 2025)
